Laboratory results reported in PMC7158214 (Clinical Pharmacology and Therapeutics, 2020).
“And” between values parts separate entries of the source, which are not always exact repeats. Equal entries are not always repeated. Where two headings read alike, the source gives them in different places.

Tests used:
OATP1B [1] = assay: Effect of rifampicin on plasma AUC0-24h of endogenous compounds; assay type: in vivo, human; settings: for AUC0-24h Geometric Mean Ratio Control/Baseline (90% CI): probe cocktail vs placebo day; for AUC0-24h Geometric Mean Ratio +RIF/Control (90% CI): +RIF600
OATP1B [2] = assay: Nonlinear regression of AUCR^-1 vs rifampicin Cmax; assay type: in vivo, human; settings: from AUCR based on AUC0-24h
OATP1B [3] = settings: +RIF600
[4] = cited from earlier work
[5] = assay type: in vivo; settings: human, plasma, po

fRIF (fraction sensitive to inhibition by rifampicin) (OATP1B [2])	AUC0-24h Geometric Mean Ratio +RIF/Control (90% CI) (OATP1B [1])	Compound	other results
0.801 ± 0.124	–	C[C@H](CCC(=O)O[C@@H]1O[C@H](C(=O)O)[C@@H](O)[C@H](O)[C@H]1O)[C@H]1CC[C@H]2[C@@H]3[C@H](O)C[C@@H]4C[C@H](O)CC[C@]4(C)[C@H]3CC[C@]12C [CDCA-24G, chenodeoxycholate‐24‐glucuronide]	AUC0-24h Geometric Mean Ratio Control/Baseline (90% CI) (OATP1B [1]): > 1.25 and 1.4
–	–	C[C@H](CCC(=O)NCC(=O)O)[C@H]1CC[C@H]2[C@@H]3[C@H](O)C[C@@H]4C[C@H](O)CC[C@]4(C)[C@H]3C[C@H](O)[C@]12C [GCA, glycocholate]	AUC0-24h Geometric Mean Ratio Control/Baseline (90% CI) (OATP1B [1]): > 1.25
–	–	C[C@H](CCC(=O)NCC(=O)O)[C@H]1CC[C@H]2[C@@H]3[C@H](O)C[C@@H]4C[C@H](O)CC[C@]4(C)[C@H]3CC[C@]12C [GCDCA, glycochenodexoxycholate]	AUC0-24h Geometric Mean Ratio Control/Baseline (90% CI) (OATP1B [1]): > 1.25
1 ± 0.08	~ 15	C[C@H](CCC(=O)NCC(=O)O)[C@H]1CC[C@H]2[C@@H]3[C@H](O)C[C@@H]4C[C@H](O[C@@H]5O[C@H](C(=O)O)[C@@H](O)[C@H](O)[C@H]5O)CC[C@]4(C)[C@H]3CC[C@]12C [GCDCA-G, glycochenodeoxycholate‐3‐glucuronide]	–
–	greater than 2	C[C@H](CCC(=O)NCC(=O)O)[C@H]1CC[C@H]2[C@@H]3CC[C@@H]4C[C@H](OS(=O)(=O)O)CC[C@]4(C)[C@H]3C[C@H](O)[C@]12C [GDCA-S, glycodeoxycholate‐3‐sulfate]	–
–	greater than 2	C[C@H](CCC(=O)NCC(=O)O)[C@H]1CC[C@H]2[C@@H]3CC[C@@H]4C[C@H](OS(=O)(=O)O)CC[C@]4(C)[C@H]3CC[C@]12C [GLCA-S, glycolithocholate‐3‐sulfate]	–
0.776 ± 0.093	–	O=C(O)CCCCCCCCCCCCCCC(=O)O [HDA, hexadecanedioic acid]	–
0.810 ± 0.043	–	O=C(O)C[C@H](O)C[C@H](O)/C=C/c1c(C2CC2)nc2ccccc2c1-c1ccc(F)cc1 [Pitavastatin, pitavastatin, reference compound]	AUC0-24h Geometric Mean Ratio +RIF/Control (90% CI) (OATP1B [3]): 4.0
0.702 ± 0.122	–	CC(C)c1nc(N(C)S(C)(=O)=O)nc(-c2ccc(F)cc2)c1/C=C/[C@@H](O)C[C@@H](O)CC(=O)O [Rosuvastatin, rosuvastatin]	AUC0-24h Geometric Mean Ratio +RIF/Control (90% CI) (OATP1B [3]): 2.5; contribution of urinary excretion to the systemic elimination [4]: ca. 20%
–	greater than 2	C[C@H](CCC(=O)NCCS(=O)(=O)O)[C@H]1CC[C@H]2[C@@H]3CC[C@@H]4C[C@H](OS(=O)(=O)O)CC[C@]4(C)[C@H]3CC[C@]12C [TLCA-S, taurolithocholate‐3‐sulfate]	–
0.831 ± 0.036	–	CCCCC(=O)N(Cc1ccc(-c2ccccc2-c2nnn[nH]2)cc1)[C@H](C(=O)O)C(C)C [Valsartan, valsartan, reference compound]	AUC0-24h Geometric Mean Ratio +RIF/Control (90% CI) (OATP1B [3]): 5.5
–	–	CO[C@H]1/C=C/O[C@@]2(C)Oc3c(C)c(O)c4c(O)c(c(/C=N/N5CCN(C)CC5)c(O)c4c3C2=O)NC(=O)/C(C)=C\C=C\[C@H](C)[C@H](O)[C@@H](C)[C@@H](O)[C@@H](C)[C@H](OC(C)=O)[C@@H]1C [rifampicin]	AUC(0-t) ([5]; 150 mg): 19.8 ± 1.2 µM·h; Cmax ([5]; 150 mg): 4.78 ± 0.29 µM; AUC(0-t) ([5]; 300 mg): 55.5 ± 3.4 µM·h; AUC(0-t) ([5]; 600 mg): 141 ± 9 µM·h; Cmax ([5]; 600 mg): 22.8 ± 2.6 µM
0.976 ± 0.180	2.8	direct bilirubins [D-BIL]	–
